# According to patent US5008416A, “Organogermanium compound, process for the preparation of same as well as use thereof” (Sanwa Kagaku Kenkyusho Co., Ltd., priority 1989, dated 1991):
# Experiments:
# [1] = system: acute liver injury induced by galactosamine (serum transaminases); assay: Action to acute liver injury induced by galactosamine (Pharmacological Experiment 10); format: in vivo, rat (Wister male); details: for s-GPT / s-GOT: 5 days, 48 hours, mean ± standard error, n = 10
# Protocol: An action of the organogermanium compound of the invention to an acute liver injury to be induced by galactosamine, as an experimental model for liver injury is checked, through measurement of serum transaminases, as indexes.
# To Wister male rats (n=10 for each group), galactosamine was administered into abdominal canal by a dose of 400 mg/kg at 2 times with an interval of 6 hours to induce a acute liver injury.
# To the […] in each Test group, the compound according to the invention (Example 4) dissolved in 4% bovine serum albumin solution was orally administered by 0.1, 1.0 or 10.0 mg/kg/day over 5 days beginning from 3 days before the administration of galactosamine.
# After having lapsed 48 hours from the first administration of galactosamine, a blood letting was carried out to measure GOT and GPT values in serum.
# [2] = system: normal mice; assay: Influence on delayed type hypersensitivity in normal mice (Pharmacological Experiment 4); format: in vivo, mouse (ICR male); details: for Food pad swelling: 24 hours, mean ± standard error, n = 10
# Protocol: Influence of the organogermanium compound on the DTH response of normal mice is investigated.
# Normal ICR male mice (age of 8 weeks) were immunized with 10^6 cells of SRBC by intravenous route. On 4 days after immunization, the organogermanium compound (Example 4) dissolved in 4% bovine serum albumin was orally administered at the dose of 0.1, 1.0 and 10.0 mg/kg. Just after the treatment with the compound, mice were challenged to intracutaneus injection of 2×10^8 cells of SRBC to hind food pad.
# After 24 hours from the injection, the swelling of the foot pad was observed by a stereoscopic microscope.
# [3] = system: NZB/WF1 mice; assay: Influence on antibody production in NZB/WF1 mice (Pharmacological Experiment 2); format: in vivo, mouse (NZB/WF1 female); details: for Number of PFC: 3 times, mean ± standard error, n = 5, (*) significant vs Control
# Protocol: Influence of the organogermanium compound on antibody production is checked with use of NZB/WF1 mice who generate an autoimmune disease due to polyclonal activation of B cells, caused by functional reduction of suppresser T cell activities.
# NZB/WF1 female mice (age of 11 weeks) were classified into Control group and Test groups (5 mice for each group), and 2×10^8 cells of SRBC were injected in a tail vein of each mouse for sensitization.
# To the mice in each Test group, the organogermanium compound (Example 4) dissolved in 4% bovine serum albumin solution was orally administered in a dose of 1.0 or 10.0 mg/kg/day at 3 time, namely the day before, just after and the day after the sensitization.
# After 4 days from the sensitization, spleen was removed from each mouse and number of PFC in 10^6 spleen cells was measured, as an index of the antibody production in the NZB/WF1 mice.
substance,measurement,setting,value
Sodium 2-oxygermylethanesulfonate polymer [Example 4],s-GPT,[1]; 0.1 mg/kg/day orally,382 ± 151 Karmen Unit
same,s-GOT,"[1]; 0.1 mg/kg/day orally, (*) p < 0.05 vs Control",1034 ± 184
same,s-GPT,"[1]; 1.0 mg/kg/day orally, (*) p < 0.05 vs Control",238 ± 87 Karmen Unit
same,s-GOT,"[1]; 1.0 mg/kg/day orally, (***) p < 0.001 vs Control",563 ± 133
same,s-GPT,"[1]; 10.0 mg/kg/day orally, (*) p < 0.05 vs Control",275 Karmen Unit
same,s-GOT,"[1]; 10.0 mg/kg/day orally, (**) p < 0.01 vs Control",620 ± 201
same,GOT and GPT values (result in words),"[1]; 0.1, 1.0 or 10.0 mg/kg/day orally",noticeably decreasing GOT and GPT values
same,Food pad swelling,"[2]; 0.1 mg/kg orally, (**) p < 0.01 vs Control",70.9 ± 9.1 x 0.01 mm
same,Food pad swelling,"[2]; 1.0 mg/kg orally, (***) p < 0.001 vs Control",59.0 ± 6.6 x 0.01 mm
same,Food pad swelling,"[2]; 10.0 mg/kg orally, (*) p < 0.05 vs Control",86.9 ± 10.2 x 0.01 mm
same,DTH response of normal mice (result in words),"[2]; 0.1, 1.0 and 10.0 mg/kg orally",significantly reduced the DTH response of normal mice
same,Number of PFC,[3]; 1.0 mg/kg/day orally,3511 ± 302 PFC in 10^6 spleen cells
same,Number of PFC,[3]; 10.0 mg/kg/day orally,3800 ± 360 PFC in 10^6 spleen cells
same,Number of PFC (result in words),"[3]; treatment groups, 1.0 or 10.0 mg/kg/day orally",the number of PFC was significantly reduced
